The text below walks through data of patent US9226916B2, “Pyrrolidine derivatives” (HOFFMANN-LA ROCHE INC., priority 2009, dated 2016).

SMILES strings stand for the structures.

The first experiment deals with T1, recombinant human NK3 receptor (Homo sapiens, UniProt P29371).
T1 construct: expressed in transfected cells; host or cells: HEK293 cells, transient expression; membranes
T1 sequence (P29371 1-465): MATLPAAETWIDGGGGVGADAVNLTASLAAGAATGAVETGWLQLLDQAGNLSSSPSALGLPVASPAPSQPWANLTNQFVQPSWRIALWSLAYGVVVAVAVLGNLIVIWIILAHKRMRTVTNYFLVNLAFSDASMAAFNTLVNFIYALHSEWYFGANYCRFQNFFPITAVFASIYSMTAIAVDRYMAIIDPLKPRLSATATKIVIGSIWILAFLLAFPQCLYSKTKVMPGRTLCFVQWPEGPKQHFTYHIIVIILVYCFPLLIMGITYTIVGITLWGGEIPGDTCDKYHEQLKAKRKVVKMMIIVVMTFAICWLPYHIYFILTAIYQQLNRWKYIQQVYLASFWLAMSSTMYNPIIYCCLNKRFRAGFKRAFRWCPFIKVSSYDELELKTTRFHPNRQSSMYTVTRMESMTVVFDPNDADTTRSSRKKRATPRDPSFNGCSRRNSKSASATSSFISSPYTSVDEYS
The experiment in a line: [3H]SR142801 competition binding assay.
Details: not given
A word on the Ki: it is the equilibrium dissociation constant of an inhibitor or competing ligand from its target. As for `CN(C(=O)Oc1ccc(F)cc1)[C@@H]1CN(C(=O)C2CCN(c3ccc(C(F)(F)F)cn3)CC2)C[C@H]1c1ccc(Cl)c(Cl)c1` [Example 306, [(3S,4R)-4-(3,4-Dichloro-phenyl)-1-(5′-trifluoromethyl-3,4,5,6-tetrahydro-2H-[1,2′]bipyridinyl-4-carbonyl)-pyrrolidin-3-yl]-methyl-carbamic acid 4-fluoro-phenyl ester], the Ki amounted to 0.7 nM.
For the molecule `CN(C(=O)Oc1ccc(F)cc1)[C@@H]1CN(C(=O)C2CCN(C(=O)C3(C)CC3)CC2)C[C@H]1c1ccc(F)cc1` [Example 129, {(3S,4R)-4-(4-Fluoro-phenyl)-1-[1-(1-methyl-cyclopropanecarbonyl)-piperidine-4-carbonyl]-pyrrolidin-3-yl}-methyl-carbamic acid 4-fluoro-phenyl ester], the inhibition constant Ki turned out to be 13.7 nM.
For the molecule `CN(C(=O)Oc1cccc(C#N)c1)[C@@H]1CN(C(=O)C2CCN(c3ccc(C#N)cn3)CC2)C[C@H]1c1ccc(Cl)cc1` [Example 225, [(3S,4R)-4-(4-Chloro-phenyl)-1-(5′-cyano-3,4,5,6-tetrahydro-2H-[1,2′]bipyridinyl-4-carbonyl)-pyrrolidin-3-yl]-methyl-carbamic acid 3-cyano-phenyl ester], the Ki was determined as 11.2 nM.
On the same count and under the same terms, with `Cc1nnc(N2CCC(C(=O)N3C[C@@H](N(C)C(=O)Oc4ccc(F)cc4)[C@H](c4ccc(Cl)cc4)C3)CC2)o1` [Example 134, {(3S,4R)-4-(4-Chloro-phenyl)-1-[1-(5-methyl-[1,3,4]oxadiazol-2-yl)-piperidine-4-carbonyl]-pyrrolidin-3-yl}-methyl-carbamic acid 4-fluoro-phenyl ester] the figure was 3.6 nM.
The same measure, in the same setting: with `CN(C(=O)Oc1ccc(F)cc1)[C@H]1CN(C(=O)C2CCN(C3CCOCC3)CC2)C[C@@H]1c1ccc(Cl)c(Cl)c1` (racemic) [Example 77, rac-{(3R,4S)-4-(3,4-Dichloro-phenyl)-1-[1-(tetrahydro-pyran-4-yl)-piperidine-4-carbonyl]-pyrrolidin-3-yl}-methyl-carbamic acid 4-fluoro-phenyl ester] the figure was 1.5 nM.
Same read-out and setting: with `CN(C(=O)O[C@H]1C[C@H]2CC[C@@H]1C2)[C@H]1CN(C(=O)C2CCN(C(=O)C3(C)CC3)CC2)C[C@@H]1c1ccc(Cl)c(Cl)c1` (mixture of isomers) [Example 68, {(3R,4S)-4-(3,4-Dichloro-phenyl)-1-[1-(1-methyl-cyclopropanecarbonyl)-piperidine-4-carbonyl]-pyrrolidin-3-yl}-methyl-carbamic acid (1R,2S,4S)-bicyclo[2.2.1]hept-2-yl ester and {(3S,4R)-4-(3,4-Dichloro-phenyl)-1-[1-(1-methyl-cyclopropanecarbonyl)-piperidine-4-carbonyl]-pyrrolidin-3-yl}-methyl-carbamic acid (1R,2S,4S)-bicyclo[2.2.1]hept-2-yl ester] the figure was 62.6 nM; with `CN(C(=O)Oc1ccc(C#N)cc1F)[C@@H]1CN(C(=O)C2CCN(c3ccc(C#N)cn3)CC2)C[C@H]1c1ccc(Cl)cc1` [Example 237, [(3S,4R)-4-(4-Chloro-phenyl)-1-(5′-cyano-3,4,5,6-tetrahydro-2H-[1,2′]bipyridinyl-4-carbonyl)-pyrrolidin-3-yl]-methyl-carbamic acid 4-cyano-2-fluoro-phenyl ester], 0.4 nM; with `CCC(=O)N1CCC(C(=O)N2C[C@@H](N(C)C(=O)Oc3ccc(F)cc3)[C@H](c3ccc(Cl)cc3)C2)C1` (stereo partly drawn) [Example 170, [(3S,4R)-4-(4-Chloro-phenyl)-1-(1-propionyl-pyrrolidine-3-carbonyl)-pyrrolidin-3-yl]-methyl-carbamic acid 4-fluoro-phenyl ester], 8.3 nM.
As for `CN(C(=O)Oc1cccc(Cl)n1)[C@@H]1CN(C(=O)C2CCN(C(=O)C3(C)CC3)CC2)C[C@H]1c1ccc(Cl)c(Cl)c1` [Example 300, {(3S,4R)-4-(3,4-Dichloro-phenyl)-1-[1-(1-methyl-cyclopropanecarbonyl)-piperidine-4-carbonyl]-pyrrolidin-3-yl}-methyl-carbamic acid 6-chloro-pyridin-2-yl ester], the Ki amounted to 2.6 nM.
Regarding `COCC1(C(=O)N2CCC(C(=O)N3C[C@@H](N(C)C(=O)Oc4ccc(F)cc4)[C@H](c4ccc(Cl)cc4)C3)CC2)CC1` [Example 259, {(3S,4R)-4-(4-Chloro-phenyl)-1-[1-(1-methoxymethyl-cyclopropanecarbonyl)-piperidine-4-carbonyl]-pyrrolidin-3-yl}-methyl-carbamic acid 4-fluoro-phenyl ester], the inhibition constant (Ki) was found to be 3.8 nM.
The same measure, in the same setting: the figure for `COc1ccc(OC(=O)N(C)[C@H]2CN(C(=O)C3CCN(CC4CC4)CC3)C[C@@H]2c2ccc(Cl)c(Cl)c2)cc1` [Example 20, [(3R,4S)-1-(1-Cyclopropylmethyl-piperidine-4-carbonyl)-4-(3,4-dichloro-phenyl)-pyrrolidin-3-yl]-methyl-carbamic acid 4-methoxy-phenyl ester] is 72.4 nM; for `CC(=O)Oc1ccc(N2CCC(C(=O)N3C[C@@H](N(C)C(=O)Oc4ccc(F)cc4)[C@H](c4ccc(Cl)cc4)C3)CC2)nc1` [Example 321, Acetic acid 4-{(3R,4S)-3-(4-chloro-phenyl)-4-[(4-fluoro-phenoxycarbonyl)-methyl-amino]-pyrrolidine-1-carbonyl}-3,4,5,6-tetrahydro-2H-[1,2′]bipyridinyl-5′-yl ester] it is 2.4 nM; for `CN(C(=O)Oc1ccc(F)cc1)[C@@H]1CN(C(=O)C2CCN(c3ccncn3)CC2)C[C@H]1c1ccc(Cl)cc1` [Example 191, [(3S,4R)-4-(4-Chloro-phenyl)-1-(1-pyrimidin-4-yl-piperidine-4-carbonyl)-pyrrolidin-3-yl]-methyl-carbamic acid 4-fluoro-phenyl ester] it is 1.2 nM.
As to `CC(=O)N1CCC(C(=O)N2C[C@@H](N(C)C(=O)Oc3ccc(F)cc3)[C@H](c3ccc(Cl)c(Cl)c3)C2)CC1` [Example 283, [(3S,4R)-1-(1-Acetyl-piperidine-4-carbonyl)-4-(3,4-dichloro-phenyl)-pyrrolidin-3-yl]-methyl-carbamic acid 4-fluoro-phenyl ester], the Ki stood at 0.7 nM.
Still for that read-out and setting: the figure for `CN(C(=O)Oc1ccc(F)cc1)[C@@H]1CN(C(=O)C2CCN(C(=O)C3(C(F)(F)F)CCC3)CC2)C[C@H]1c1ccc(Cl)cc1` [Example 252, {(3S,4R)-4-(4-Chloro-phenyl)-1-[1-(1-trifluoromethyl-cyclobutanecarbonyl)-piperidine-4-carbonyl]-pyrrolidin-3-yl}-methyl-carbamic acid 4-fluoro-phenyl ester] is 2.7 nM; for `COc1ccc(OC(=O)N(C)[C@H]2CN(C(=O)C3CCN(CC4CC4)CC3)C[C@@H]2c2ccc(Cl)c(Cl)c2)cc1` (racemic) [Example 9, rac-[(3R,4S)-1-(1-Cyclopropylmethyl-piperidine-4-carbonyl)-4-(3,4-dichloro-phenyl)-pyrrolidin-3-yl]-methyl-carbamic acid 4-methoxy-phenyl ester] it is 13.6 nM.

The experiment is the same for the next values; noted with them: hNK-3 receptor affinity; membranes from HEK293 cells transiently expressing recombinant human NK3 receptor; [3H]SR142801; Cheng-Prussoff; read-out: Data Ki.
With `CN(CCC1CC1)C(=O)N(C)[C@H]1CN(C(=O)C2CCN(C(=O)C3(C)CC3)CC2)C[C@@H]1c1ccc(Cl)c(Cl)c1` (racemic) [Example 97, rac-1-(2-Cyclopropyl-ethyl)-3-{(3R,4S)-4-(3,4-dichloro-phenyl)-1-[1-(1-methyl-cyclopropanecarbonyl)-piperidine-4-carbonyl]-pyrrolidin-3-yl}-1,3-dimethyl-urea], the Ki was 31 nM.
